Measurements reported in patent US7045343B2, “Sterilization indicator test packs” (3M Innovative Properties Company, priority 1998, dated 2006).

Test system: enzyme associated with Bacillus stearothermophilus spores
Assay: Rapid enzyme fluorescence readout of indicators after hydrogen peroxide plasma sterilization
Assay type: biochemical
Conditions: 1–3 hours after exposure
Protocol: Sterilization indicators for Examples 6–9 were prepared as described above with the exception that closure member 22 of the sterilization indicator was constructed of TYVEK™ high-density polyethylene fiber material, commercially available from E.I. du Pont de Nemours and Co., Wilmington, Del.
(§1) Sterilization indicators were made as described above with spores that had been coated with each of the chemicals and concentrations listed in Table 6. The indicators were placed in instrument trays and exposed to a hydrogen peroxide plasma sterilization procedure at 45–55° C. in a STERRAD™ 100SI GMP Sterilizer, obtained from Advanced Sterilization Products Co., Irvine, Calif. During the sterilization procedure a vacuum was drawn in the sterilization chamber for 5–6 minutes until the pressure was reduced to 300 mTorr. A 1.8 ml aliquot of an aqueous solution of 58–60% hydrogen peroxide was then injected into the sterilization chamber over a period of about 6 minutes, yielding an empty chamber concentration of […] hydrogen peroxide, and hydrogen peroxide vapor was allowed to diffuse throughout the chamber for 1–22 minutes at 6–10 Torr. A vacuum was then drawn, reducing the pressure to 500 mTorr and removing all detectable hydrogen peroxide vapor from the chamber.
After exposure to the sterilization procedure, the indicators were removed from the sterilizer and the inner containers containing the enzyme substrate and nutrient medium were crushed. The indicators were then incubated at 60° C. and examined for fluorescence every hour for 5 hours using a 3M™ ATTEST™ Model 190 Rapid Autoreader, commercially available from 3M Company, St. Paul, Minn. Additionally, spore growth, as indicated by a color change from purple to yellow, was determined visually after 168 hours of incubation.
The number of growth positive indicators detected after 168 hours of incubation is recorded in Table 6.
as §1, with “7.” for “6.”
as §1, with “8.” for “6.”, “chamber. […]” for “chamber.”

O=CC(=O)C=O [1,2,3-Propantrial]
accuracy of sterilization indicators compared to indicators made with untreated spores: improved
